This note sets out measurements from ChEMBL document CHEMBL1201862, “PubChem BioAssay data set” (2004).

One data set relates to H9c2. Put plainly: cells. In kind it is functional, cell-based. The note with it: Rattus norvegicus, H9c2, Myocardium.
The target of data set [1] is T1, Corticotropin-releasing factor receptor 2/Corticotropin-releasing factor-binding protein (Homo sapiens, UniProt P24387+Q13324).
T1 sequence (Q13324 whole entry): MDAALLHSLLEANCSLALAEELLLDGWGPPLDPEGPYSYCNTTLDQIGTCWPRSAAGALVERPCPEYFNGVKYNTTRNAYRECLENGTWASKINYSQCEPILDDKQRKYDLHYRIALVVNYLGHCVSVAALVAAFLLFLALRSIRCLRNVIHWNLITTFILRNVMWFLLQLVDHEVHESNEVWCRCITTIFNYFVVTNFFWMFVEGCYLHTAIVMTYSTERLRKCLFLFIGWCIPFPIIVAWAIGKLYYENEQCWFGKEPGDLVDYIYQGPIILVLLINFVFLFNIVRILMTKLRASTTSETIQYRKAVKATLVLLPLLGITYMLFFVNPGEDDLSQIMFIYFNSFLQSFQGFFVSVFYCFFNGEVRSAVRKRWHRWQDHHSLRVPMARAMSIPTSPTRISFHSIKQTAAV
T1 sequence (P24387 whole entry): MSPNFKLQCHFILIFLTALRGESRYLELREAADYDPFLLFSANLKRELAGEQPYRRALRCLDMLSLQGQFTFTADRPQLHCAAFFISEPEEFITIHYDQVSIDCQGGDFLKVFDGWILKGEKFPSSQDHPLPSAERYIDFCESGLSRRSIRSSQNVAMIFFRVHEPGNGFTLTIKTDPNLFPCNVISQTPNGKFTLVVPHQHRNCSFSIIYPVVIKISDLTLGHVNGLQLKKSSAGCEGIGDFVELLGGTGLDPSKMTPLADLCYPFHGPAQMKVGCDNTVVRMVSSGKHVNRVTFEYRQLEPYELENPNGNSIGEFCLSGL
Kind of data set: activators of CRF receptor 2 with binding protein – uHTS hits, confirmation (AID 602473). In kind it is functional. The note with it: read-out: EC50_Mean.

The target of a further data set is T2, Cytochrome P450 1A2 (Homo sapiens, UniProt P05177).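 Note: PubChem cytochrome P450 panel assay, CYP1A2 panel member.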
T2 sequence (P05177 whole entry): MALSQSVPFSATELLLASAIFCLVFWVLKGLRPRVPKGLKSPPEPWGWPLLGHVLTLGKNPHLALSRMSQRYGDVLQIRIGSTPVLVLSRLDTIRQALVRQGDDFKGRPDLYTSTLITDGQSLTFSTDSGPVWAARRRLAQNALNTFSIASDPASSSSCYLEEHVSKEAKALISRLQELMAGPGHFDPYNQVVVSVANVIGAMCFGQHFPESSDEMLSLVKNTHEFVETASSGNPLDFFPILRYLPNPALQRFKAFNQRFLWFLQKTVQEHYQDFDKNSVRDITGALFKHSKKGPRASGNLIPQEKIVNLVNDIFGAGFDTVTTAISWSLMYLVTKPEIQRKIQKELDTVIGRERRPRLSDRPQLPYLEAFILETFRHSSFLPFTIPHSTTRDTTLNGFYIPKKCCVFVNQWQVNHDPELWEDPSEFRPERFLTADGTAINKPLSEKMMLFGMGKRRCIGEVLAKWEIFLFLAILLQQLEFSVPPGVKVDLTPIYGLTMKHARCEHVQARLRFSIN

For the next data set, the target named is Cytochrome P450 2C19 (Homo sapiens, UniProt P33261). Put plainly: Cytochrome panel assay with activity outcomes. Panel member name: p450-cyp2c19 Compounds with AC50 equal or less than 10 uM are considered active. In kind it is functional.
Data set [2] is described as follows: cytotoxicity toward NIH3T3 fibroblasts, dose response, counter-screen, cell-based, ATP luminescence, mouse fibroblasts (AID 2010).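 Note: cells exposed to compound for about 90 hours before reading.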 In kind it is functional.
A short description of data set [3]: inhibitors of intracellular T. cruzi replication, confirmation, NIH3T3 host cells, beta-gal luminescence (AID 2044).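 Note: intracellular parasites grown in NIH/3T3 mouse fibroblasts as host cells; luminescent beta-galactosidase reporter signal from transgenic T. cruzi replicating inside host cells; inhibitors lower the luminescence signal.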 In kind it is functional, cell-based.

Activity calls are given as the source filed them. Some results are limits rather than exact numbers.
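Throughout, for IC50: confirmatory concentration-response retest of ultra-high-throughput screening hits for modulation of myocardial damage; cell death induced by hydrogen peroxide oxidative stress; compound pretreatment for 60 min then peroxide exposure for 2 h; potency is for protecting the cells against peroxide damage rather than for killing them.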

Sequence of Cytochrome P450 2C19 (P33261 whole entry): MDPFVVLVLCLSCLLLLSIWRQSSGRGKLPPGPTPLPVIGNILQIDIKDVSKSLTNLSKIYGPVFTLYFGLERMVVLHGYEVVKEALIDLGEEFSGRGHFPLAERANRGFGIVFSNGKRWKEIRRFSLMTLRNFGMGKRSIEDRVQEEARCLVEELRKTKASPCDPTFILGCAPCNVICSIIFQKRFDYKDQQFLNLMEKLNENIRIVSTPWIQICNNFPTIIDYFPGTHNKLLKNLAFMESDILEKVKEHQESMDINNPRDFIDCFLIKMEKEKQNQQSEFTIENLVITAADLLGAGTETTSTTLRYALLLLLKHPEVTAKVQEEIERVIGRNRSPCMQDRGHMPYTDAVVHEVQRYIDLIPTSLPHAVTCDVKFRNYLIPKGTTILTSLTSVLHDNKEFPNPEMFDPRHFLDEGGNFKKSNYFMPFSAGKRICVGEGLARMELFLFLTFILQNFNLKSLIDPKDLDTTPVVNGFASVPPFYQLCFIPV

Regarding `CC(C)=CCc1ccc(=O)c(O)cc1C(C)C`, in the data set with H9c2, the IC50 was > 79 µM (inactive).
Take `N#Cc1c(-c2ccc(F)cc2)cc(-c2ccccc2)nc1SCC(=O)NCC(=O)O`: the EC50 in data set [1] is 5.47 µM (active).
In the case of `O=[N+]([O-])c1ccc(C[S+]([O-])Cc2ccccc2)cc1` (stereo not given), the AC50 on Cytochrome P450 1A2 is 3.16 µM (inconclusive).
With `CCOc1cccc(C2C(C(=O)c3ccc(C)o3)=C(O)C(=O)N2Cc2ccncc2)c1` (stereo not given), the AC50 on Cytochrome P450 1A2 and on Cytochrome P450 2C19 (read-out: AC50) was 39.8 µM (inconclusive) throughout.
Consider `NC(=O)c1ccccc1OCC(=O)NC12CC3CC(CC(C3)C1)C2`, for which the IC50 in the data set with H9c2 is 36.9 µM (inactive).
With `COc1ccc(NC(=O)CCCc2nc(O)c3ccccc3n2)cc1Cl`, the IC50 with H9c2 was > 79 µM (inactive).
In the case of `CC(=O)N(C)c1nnc(-c2cnccn2)s1`, the AC50 entry at Cytochrome P450 2C19 is “inconclusive”.
As to `COc1ccc(OC)c(/C=N/Nc2nncn2/N=C/c2cc(OC)ccc2OC)c1`, the IC50 with H9c2 was > 79 µM (inactive).
Same read-out and setting: to `COc1cc(C(=O)Nc2nc(OC)c(-c3ccccc3)c(OC)n2)cc(OC)c1OC` belongs > 79 µM (inactive); to `COc1cc(-c2cc(NC(C)=O)c3ncc(-c4ccc(F)cc4)n3c2)cc(OC)c1OC`, > 79 µM (inactive); to `Cc1ncc(CO)c2c1Oc1nc(-c3ccccc3)nc(SCC(=O)N3CCCCC3)c1C2`, > 79 µM (inactive).
As for `CN(C)C(=O)COC(=O)[C@H](Cc1ccccc1)NC(=O)c1ccco1`, in data set [1], the EC50 was 19.4 µM (active).
Take `COc1ccc(-c2nc3cnc(N4CCN(C)CC4)nc3n(C3CC3)c2=O)cc1`: the AC50 at Cytochrome P450 1A2 was 20 µM (inconclusive).
As for `NC(=O)CNC(=O)[C@@H]1CC2(CC(c3ccccc3)=NO2)CN1C(=O)c1ccc(Br)cc1` (stereo not given in full), the AC50 on Cytochrome P450 1A2 is 25.1 µM (inconclusive); at Cytochrome P450 2C19 (read-out: AC50) it was 39.8 µM (inconclusive).
For `CC(C)(O)c1cn(-c2nonc2N)nn1` the same measures were 39.8 µM (inconclusive) and 3.16 µM (inconclusive).
Consider `C=CCN1C(=O)c2cccc3c(N4CCCCC4)ccc(c23)C1=O`, for which the EC50 in data set [1] is 5.47 µM (active).
As to `CCN(CC)CCNc1nc(-c2ccccc2)c2c(c1C#N)CC(C)(C)OC2`, the EC50 in data set [2] is > 60 µM (not active); in data set [3] it was 0.332 µM (active).
Consider `O=C(Cc1nnc(O)c2ccccc12)NCc1ccccn1`, for which, in the data set on H9c2, the IC50 is 35.7 µM (inactive).
Regarding `Cc1nc2ccccc2c(=O)n1-n1cnnc1`, on Cytochrome P450 1A2, the AC50 is 3.16 µM (inconclusive).
Turning to `O=C(O)CCSCc1ccccc1`, at Cytochrome P450 2C19, the AC50 result was “inconclusive”.
Same read-out and setting: to `O=c1[nH]c2c(S)nc(O)nc2n1-c1ccccc1` belongs “inconclusive”.
As for `NS(=O)(=O)c1cc2c(cc1C(F)(F)F)N[C@H](Cc1ccccc1)NS2(=O)=O`, the AC50 at Cytochrome P450 1A2 was 15.8 µM (inconclusive).
On to `Cc1sc2nc(SCC(=O)N3CCOCC3)nc(O)c2c1C`, for which, in the data set with H9c2, the IC50 is > 79 µM (inactive).
In the case of `N#CCCn1c(=O)c(CCc2ccccc2)nc2cnc(Oc3ccccc3)nc21`, the AC50 on Cytochrome P450 1A2 was 12.6 µM (inconclusive).
For `O=C(CNC(=S)N(Cc1ccccc1)Cc1cccnc1)NC1CCCCC1`, the EC50 in data set [2] was 11.1 µM (active); in data set [3], 0.516 µM (active).
As for `CCCCCC(=O)NC(=S)NNC(=O)c1ccc([N+](=O)[O-])cc1`, the EC50 in data set [1] is 5.19 µM (active).
Turning to `Cc1ccc(C(=O)N/C(=C\c2ccc(-c3ccc([N+](=O)[O-])cc3)o2)C(=O)NC2CCS(=O)(=O)C2)cc1` (stereo not given), the EC50 in data set [1] was 8.22 µM (active).
In the case of `CCCCNC(=O)c1cc2c(=O)n3cccc(C)c3nc2n(Cc2ccccc2)c1=N`, the EC50 was > 60 µM (not active) in data set [2] and 3.03 µM (active) in data set [3].
Regarding `Cc1ccc(C(C(=O)NCc2ccccc2)N(Cc2cccs2)C(=O)c2ccc3c(c2)OCCO3)cc1` (stereo not given), in the data set with H9c2, the IC50 was > 79 µM (inactive).
Regarding `CN(Cc1ccco1)c1cc(-c2cccnc2)ncn1`, the AC50 on Cytochrome P450 2C19 (read-out: AC50) is 20 µM (inconclusive).
For `O=C(Nc1nc2c(s1)CCCC2)c1ccc(S(=O)(=O)N2CCCc3ccccc32)cc1`, the EC50 in data set [2] is > 60 µM (inconclusive); in data set [3] it was 2.07 µM (active).
For the compound `COc1ccc(NC(=O)CN(C)C(=O)Cc2nnc(O)c3ccccc23)cc1`, in the data set with H9c2, the IC50 is 19.6 µM (active).
Take `CSc1ccc2c(c1)N(CC[C@H]1CCCCN1C)c1ccccc1S2`: the AC50 on Cytochrome P450 2C19 (read-out: AC50) is 20 µM (inconclusive).
Take `COc1ccc(-c2csc(NC(=O)c3ccc(OCC(=O)N4CCOCC4)c(OC)c3)n2)cc1OC`: the IC50 with H9c2 was > 79 µM (inactive).
As to `CCOC(=O)C1CCCN(C(=O)CCCOc2cc(=O)n(C)c3ccccc23)C1` (stereo not given), at Cytochrome P450 1A2, the AC50 was 25.1 µM (inconclusive).
Consider `c1csc(CNc2ccnc(-c3ccoc3)n2)c1`, for which the AC50 on Cytochrome P450 2C19 (read-out: AC50) is 31.6 µM (inconclusive).
Turning to `CCCS(=O)(=O)N1CCN(CC2CC=CCC2)CC1` (stereo not given), on Cytochrome P450 1A2, the AC50 is 12.6 µM (inconclusive).
For `COc1cc(-c2cc(C(=O)Nc3cccc(C(C)=O)c3)c3ccccc3n2)cc(OC)c1OC`, in the data set with H9c2, the IC50 was > 79 µM (inactive).
`CC(=O)Nc1ccc(Sc2ncccc2C(=O)Nc2ccc(OC(F)(F)F)cc2)cn1`: the EC50 in data set [1] was 2.96 µM (active).
On to `Cc1ccc(OC(F)F)c(NC(=O)Nc2cccc(C(F)(F)F)c2)c1`, for which the EC50 in data set [2] is > 60 µM (not active); in data set [3] it was 2.41 µM (active).
Turning to `COc1ccc(-c2cc(C(=O)NC(C)c3ccccn3)c3ccccc3n2)cc1OC` (stereo not given), the IC50 in the data set with H9c2 is > 79 µM (inactive).
On to `CC(C)(C)C(C(Oc1ccc(Cl)cc1)n1cncn1)n1nnnc1C(c1cccc(Cl)c1)N1CCCCC1` (stereo not given), for which the EC50 was > 60 µM (not active) in data set [2] and 1.59 µM (active) in data set [3].
With `CN(Cc1c[nH]c2ccccc12)C1CCCCC1`, the EC50 was 23.9 µM (active) in data set [2] and 0.699 µM (active) in data set [3].
Turning to `COc1ccc(C(=O)NN/C=C/C(=O)c2ccc(Br)cc2)cc1`, the IC50 in the data set with H9c2 was > 79 µM (inactive).
With `Cc1s/c(=N\C(=O)c2ccco2)n(C)c1-c1ccc(F)cc1`, the AC50 on Cytochrome P450 2C19 (read-out: AC50) was 3.55 µM (inconclusive).
`CC(OC(=O)Cn1[nH]c(=O)c2ccccc2c1=O)C(=O)Nc1ccc(F)cc1` (stereo not given): the IC50 in the data set with H9c2 was > 79 µM (inactive).
As for `CC(C)N(CCn1c(=S)[nH]c2ccccc2c1=O)C(C)C`, in data set [1], the EC50 was 9.1 µM (active).
In the case of `CS(=O)(=O)N1CCC[C@@]2(CCN(C(c3ccccc3)c3ccccc3)C2)C1`, the AC50 was 25.1 µM (inconclusive) at Cytochrome P450 1A2 and 3.16 µM (inconclusive) on Cytochrome P450 2C19 (read-out: AC50).
`O=C(CSc1nnc(COc2ccc(F)cc2)o1)N1c2ccccc2CCc2ccccc21`: the EC50 is > 60 µM (not active) in data set [2] and 1 µM (active) in data set [3].
For `N#Cc1ccc(-c2ccc(OCC(O)CN3CCCCC3)cc2)cc1` (stereo not given), the EC50 in data set [2] was 12.1 µM (active); in data set [3] it was 1.98 µM (active).
Consider `COc1ccc(NC(=O)c2cc(-c3cccnc3)nc3c(C)c(C)ccc23)c(OC)c1`, for which the EC50 was > 60 µM (not active) in data set [2] and 2.69 µM (active) in data set [3].
For `N[C@@H](Cn1cc(I)c(=O)[nH]c1=O)C(=O)O`, the AC50 on Cytochrome P450 1A2 was 39.8 µM (inconclusive).
As to `N=C(N)N/N=C/c1ccc(Br)cc1`, the EC50 was 6.37 µM (active) in data set [2] and 0.141 µM (active) in data set [3].
For `O=C(COc1ccc(F)cc1)Nc1cc(S(=O)(=O)N2CCCCC2)ccc1N1CCCCC1` the same measures were > 60 µM (not active) and 2.15 µM (active).

One may read the IC50 as the midpoint of a concentration-inhibition curve. The term AC50 denotes the concentration at which the activity in the assay is half-maximal.
